# Source: the OligoGym collection
# Bases are written 5' to 3'; sugars and linkages follow in the same order, as letters with counts (s phosphorothioate, o phosphodiester; PS: all linkages phosphorothioate). The collection does not say whether C is 5-methylated. l = locked nucleic acid (LNA); d = 2'-deoxy (DNA)
# Molecular target: Tau
# Experiment: rat primary cortical neurons, FLIPR, 25 uM ASO
row,Sequence,calcium oscillation score
1,"CCAACTCAACATTACCCTT (sugars l2 d15 l2, PS)",66.3 % of control
2,"CTCAGGTCAACTGGTT (sugars l3 d10 l3, PS)",83.8 % of control
3,"TGGACCACCTTACCAC (sugars l3 d10 l3, PS)",48.1 % of control
4,"ACCAATTAACCGAACTGCGA (sugars l3 d14 l3, PS)",22.6 % of control
5,"TGATTAACCAATTAACCGAA (sugars l3 d14 l3, PS)",2.59 % of control
6,"TATCCAGCCATATTTCAACT (sugars l3 d14 l3, PS)",47.6 % of control
7,"CCACACTTGGAGGTCACCTT (sugars l3 d14 l3, PS)",4.52 % of control
8,"ATCACAAACCCTGCTTGGCC (sugars l3 d14 l3, PS)",55.2 % of control
9,"AACCAACTTTCATCTACT (sugars l4 d11 l3, PS)",73.5 % of control
10,"GTCTTCCTGAAGGACACCTG (sugars l3 d14 l3, PS)",0 % of control
11,"ATTTCAGAGCAAAGTGACCC (sugars l3 d14 l3, PS)",74.5 % of control
12,"GAACTTCTAGTTATACAGTT (sugars l3 d14 l3, PS)",26.2 % of control
13,"ATTAATTATTAAATCTTCT (sugars l4 d11 l4, PS)",63.9 % of control
14,"ATTTAATTTATTTTTTACTT (sugars l4 d12 l4, PS)",50.1 % of control
15,"TCTTAGAGGACTGCAACGCA (sugars l3 d14 l3, PS)",25.7 % of control
16,"ATCCTAAGTCAACCACA (sugars l2 d11 l4, PS)",69 % of control
17,"ACTTGTACACGATCTCCGCC (sugars l3 d14 l3, PS)",103 % of control
18,"TGTGATGCAGGAGTTG (sugars l3 d10 l3, PS)",28.7 % of control
19,"TTGAAGTCCCGAGCCA (sugars l3 d10 l3, PS)",2.38 % of control
20,"ATCCAGCCATATTTCAACTC (sugars l3 d14 l3, PS)",28.2 % of control
21,"CACCTCATTAAGATCAC (sugars l3 d10 l4, PS)",76.6 % of control
22,"CCTTTGAAAGTCCTTT (sugars l3 d9 l4, PS)",90.5 % of control

row,Sequence,calcium oscillation score
1,"AAGCAATAGCAAACA (sugars l3 d9 l3, PS)",142 % of control
2,"ATCAGAGGTTTCAGAG (sugars l3 d10 l3, PS)",0 % of control
3,"TTTATTTCCAAATTCACTTT (sugars l5 d10 l5, PS)",≥ 200 % of control
4,"CATCCTAAGTCAACCAC (sugars l3 d11 l3, PS)",72.7 % of control
5,"ACATTCTATACTTCAG (sugars l4 d8 l4, PS)",71.4 % of control
6,"TCACACACATGATTATC (sugars l4 d9 l4, PS)",78.5 % of control
7,"AGCTTCGTCTTCCAGGCTGG (sugars l3 d14 l3, PS)",13.3 % of control
8,"TTGTACACGATCTCCG (sugars l3 d10 l3, PS)",55.2 % of control
9,"AAGTCCCGAGCCAAAG (sugars l3 d10 l3, PS)",91.8 % of control
10,"GGTCTGGCATGGGCA (sugars l3 d9 l3, PS)",59 % of control
11,"ATTTCCAAATTCACTTTTAC (sugars l1 d17 l2, PS)",≥ 200 % of control
12,"ACTGCGAGGAGCAGCT (sugars l3 d10 l3, PS)",48.1 % of control
13,"TAGTAAACACCATCTCT (sugars l3 d10 l4, PS)",71.4 % of control
14,"CTCCAATCTTACAGAT (sugars l4 d9 l3, PS)",102 % of control
15,"CATGTCGATGCTGCCG (sugars l3 d10 l3, PS)",67.3 % of control
16,"CCAGGGACCCAATCTT (sugars l3 d10 l3, PS)",76 % of control
17,"AATAAGAAAGGAACGC (sugars l5 d6 l5, PS)",113 % of control
18,"TATCCTTTGAGCCACACTTG (sugars l3 d14 l3, PS)",11.7 % of control
19,"ATTTCCAAATTCACTTTTAC (sugars lllldddddddddlddldll, PS)",110 % of control
20,"CGACTTATCTATCCATCT (sugars l2 d12 l4, PS)",45.8 % of control
21,"CACTCTCTGCATATAT (sugars l4 d9 l3, PS)",69 % of control
22,"AATCCTGTGCTTCA (sugars l3 d8 l3, PS)",9.58 % of control

row,Sequence,calcium oscillation score
1,"CAAACAATCCATTTATATTC (sugars l4 d12 l4, PS)",55.5 % of control
2,"TCCACTTAGACACTCTTT (sugars l3 d13 l2, PS)",37.5 % of control
3,"CTAATCCTGTGCTT (sugars l3 d8 l3, PS)",26.1 % of control
4,"CTTTATTTCCAAATTCACT (sugars l3 d11 l5, PS)",121 % of control
5,"CCCCAGACCATCAATT (sugars l2 d12 l2, PS)",57.7 % of control
6,"TGATATTATCCTTTGAGCCA (sugars l3 d14 l3, PS)",27.4 % of control
7,"CCACTCCATGTCAATCA (sugars l4 d11 l2, PS)",63.5 % of control
8,"CTTCTATTACTTGCAAT (sugars l4 d9 l4, PS)",69 % of control
9,"GACTTGGGTGGAGTACGGAC (sugars l3 d14 l3, PS)",0 % of control
10,"CCTTTGAAAGTCCTTT (sugars l2 d11 l3, PS)",100 % of control
11,"TTCCTGGACCACCTTA (sugars l3 d10 l3, PS)",59.3 % of control
12,"TACCATGTCGATGCT (sugars l3 d9 l3, PS)",81.6 % of control
13,"TGGATATAGTTAAGGC (sugars l3 d9 l4, PS)",106 % of control
14,"TATGTTTTTTAACTCCC (sugars l4 d11 l2, PS)",94.3 % of control
15,"CACCCATCAATTTGGAAAGA (sugars l3 d14 l3, PS)",91.5 % of control
16,"TGAATAACATTAACCC (sugars l4 d8 l4, PS)",54 % of control
17,"GTCCAAACTTTTACTCT (sugars l4 d11 l2, PS)",75.7 % of control
18,"CCTTTGTAATTCCTTCTC (sugars l3 d13 l2, PS)",53.4 % of control
19,"TTTATTTCCAAATTCACTTT (sugars lldllddddddddddlldll, PS)",106 % of control
20,"GGTTGGATCAGAGGGT (sugars l3 d10 l3, PS)",7.41 % of control
21,"AATAGCAAACAGGAT (sugars l3 d9 l3, PS)",3.83 % of control
22,"ACACTGTCGTCGAATG (sugars l3 d10 l3, PS)",9.52 % of control

row,Sequence,calcium oscillation score
1,"TCTCTCTTAACTTTATTTTA (sugars l3 d13 l4, PS)",80.8 % of control
2,"TTTGGAAAGATGAAATTTGC (sugars l3 d14 l3, PS)",7.77 % of control
3,"TCAGCTCTTCCATAAGCAGG (sugars l3 d14 l3, PS)",38.5 % of control
4,"TAACTCAAATCAATTCTCAT (sugars l4 d12 l4, PS)",63.9 % of control
5,"GGCGCAGGCGCGAGCA (sugars l3 d10 l3, PS)",7.62 % of control
6,"GTGTTTGATATTATCC (sugars l3 d10 l3, PS)",46.7 % of control
7,"CAAACCACTCTTATTCTTT (sugars l3 d12 l4, PS)",83.2 % of control
8,"AACCACTCTTATTCTTTAA (sugars l4 d11 l4, PS)",77.1 % of control
9,"CTTGGGTGGAGTACGG (sugars l3 d10 l3, PS)",0 % of control
10,"CTTTACCCATCTTAATTCAT (sugars l3 d15 l2, PS)",82.1 % of control
11,"CTTTATTTCCAAATTCACTT (sugars lldllddddddddddlldll, PS)",117 % of control
12,"CAGCGTGATCTTCCAT (sugars l3 d10 l3, PS)",13.4 % of control
13,"TTAATTTCACCCTC (sugars l3 d8 l3, PS)",44.1 % of control
14,"CCAGCGTGATCTTCCATCAC (sugars lldllddddddddddlldll, PS)",121 % of control
15,"ATTTTACTACTCTCTTTT (sugars l4 d10 l4, PS)",75 % of control
16,"GACTTGGGTGGAGTAC (sugars l3 d10 l3, PS)",0 % of control
17,"TGTAGACTATTTGC (sugars l3 d8 l3, PS)",30.9 % of control
18,"CGTCCCAGCGTGATCTTCCA (sugars l5 d11 l4, PS)",36.2 % of control
19,"GCCTTACTTTCTACTCAA (sugars l2 d13 l3, PS)",53.9 % of control
20,"CCAATTGTCACATTAA (sugars l4 d8 l4, PS)",63.1 % of control
21,"TCCTCACTTTACACATTA (sugars l3 d13 l2, PS)",62.5 % of control
22,"CAACAGATATTCATTCC (sugars l4 d9 l4, PS)",60.6 % of control

row,Sequence,calcium oscillation score
1,"GTCGATGCTGCCGG (sugars l3 d8 l3, PS)",36.5 % of control
2,"CCGAATTTACACCCAA (sugars l2 d10 l4, PS)",79.1 % of control
3,"CCAGCTAGTGGTGCCACCTG (sugars l3 d14 l3, PS)",1.84 % of control
4,"CCCCACCCAAACTCCAAG (sugars l1 d15 l2, PS)",46.2 % of control
5,"TTCTAGTTATACAGTTGGCC (sugars l3 d14 l3, PS)",26.2 % of control
6,"CAGGGAGGCAGACACCTCGT (sugars l3 d14 l3, PS)",50.9 % of control
7,"AGAAATAAGTGGTAGT (sugars l3 d9 l4, PS)",101 % of control
8,"TCCTGTGCTTCAGGCC (sugars l3 d10 l3, PS)",75.5 % of control
9,"CCCTAAACCATGATCT (sugars l3 d10 l3, PS)",89.7 % of control
10,"CTCCTAGAACACAACAC (sugars l3 d10 l4, PS)",50.9 % of control
11,"AAATCCCTCTACTCCAG (sugars l2 d12 l3, PS)",51.4 % of control
12,"GCCACACTTGGAGGTCACCT (sugars l3 d14 l3, PS)",4.52 % of control
13,"CTTTATTCCCTTAACAATAT (sugars l3 d14 l3, PS)",74.6 % of control
14,"CTTGAAGTCAAGCTTCTCAG (sugars l3 d14 l3, PS)",33.2 % of control
15,"CATTTCTGGAAGGTTCTTTC (sugars l3 d14 l3, PS)",23.9 % of control
16,"ATACTCAAATTCTTCCTT (sugars l4 d11 l3, PS)",70.9 % of control
17,"ATTTCTCTAATTGTCCA (sugars l4 d10 l3, PS)",46.8 % of control
18,"CTTGTGATGCAGGAG (sugars l3 d9 l3, PS)",87.8 % of control
19,"CCCAGCGTGATCTTCCATCA (sugars l3 d14 l3, PS)",104 % of control
20,"AACTGATTCCATCACCA (sugars l3 d11 l3, PS)",69.7 % of control
21,"GCCCTAAAGTCCCAGG (sugars l3 d10 l3, PS)",41.9 % of control
